The term IC50 denotes the point on the concentration scale where inhibition reaches its midpoint. Low readings indicate greater potency in that assay, high ones weaker potency in that assay.

This note sets out measurements from patent US20240092799A1, “MNK INHIBITORS” (Hepagene Therapeutics (HK) Limited, priority 2020, published 2024).

Structures are written as SMILES. Where a name gives a salt, the structure may show the parent alone.

One experiment concerns the target MNK2 (Homo sapiens (Human), UniProt Q9HBH9). Put plainly: MNK Biochemical Enzymatic Assay (ADP-Glo), MNK2 binding assay. In short, it runs like this: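 Human MNK1 or MNK2 was preincubated with a 10-point, 1:3 serial dilution of compound for 15 min at 25 °C. Substrate was then added and the reaction ran 60 min at 25 °C. ADP formed was read by ADP-Glo luminescence, and IC50 came from non-linear regression.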

In a further experiment the test system is TMD-8 cell p-IF4E. Briefly: p-eIF4E Signaling Cellular Assay (CisBio HTRF) in TMD-8 cells. Conditions: Homo sapiens, TMD8, 40 min, 40 min treatment. Format: cell-based. Here is the method: p-eIF4E Signaling Cellular Assay. Phosphorylated eIF4E is assayed using the CisBio p-Eif4E HTRF assay kit. Reagents and equipment used in the assay are listed below, followed by the protocol.
Cell medium: RPMI 1640+10% FBS+1*PS, TMD-8 were cultured as recommended and assayed in exponential growth phase. • a) Plate 30 μL of cells in 384 white assay plate in appropriate medium and proper cell density (20 k/well) based on Optimization at 37° C. under 5% CO2 atmosphere • b) Dispense 90 nL of compounds diluted in DMSO and treat for 40 min at 37° C. under 5% CO2 atmosphere • c) Remove cell supernatant by flicking the plate • d) Add 16 μL of supplemented lysis buffer (1×) for 30 minutes at RT under shaking • e) Add 4 μL of premixed antibody solutions prepared in the detection buffer. Cover the plate with a plate sealer. Incubate 0/N at RT • f) Read the fluorescence emission at 665 nm and 620 nm on Envision • g) Data analysis • (1) Ratio […] signal is calculated for each well • (2) % Inhibition is calculated as follow:
% inhibition=100−(Signalcmpd-SignalAve_PC)/(SignalAve_VC-SignalAve_PC)×100. • (3) Calculate IC50 and Plot effect-dose curve of cmpds:
Calculate IC50 by fitting % Inhibition values and log of compound concentrations to nonlinear regression (dose response−variable slope) with Graphpad 8.0.
Y=Bottom+(Top−Bottom)/(1+10^((Log IC50−X)*Hill Slope)) • X: log of Inhibitor concentration; Y: % Inhibition.
In general terms: TR-FRET usually uses a lanthanide donor and a delayed reading to cut background.

Sequence of MNK2 (Q9HBH9 whole entry): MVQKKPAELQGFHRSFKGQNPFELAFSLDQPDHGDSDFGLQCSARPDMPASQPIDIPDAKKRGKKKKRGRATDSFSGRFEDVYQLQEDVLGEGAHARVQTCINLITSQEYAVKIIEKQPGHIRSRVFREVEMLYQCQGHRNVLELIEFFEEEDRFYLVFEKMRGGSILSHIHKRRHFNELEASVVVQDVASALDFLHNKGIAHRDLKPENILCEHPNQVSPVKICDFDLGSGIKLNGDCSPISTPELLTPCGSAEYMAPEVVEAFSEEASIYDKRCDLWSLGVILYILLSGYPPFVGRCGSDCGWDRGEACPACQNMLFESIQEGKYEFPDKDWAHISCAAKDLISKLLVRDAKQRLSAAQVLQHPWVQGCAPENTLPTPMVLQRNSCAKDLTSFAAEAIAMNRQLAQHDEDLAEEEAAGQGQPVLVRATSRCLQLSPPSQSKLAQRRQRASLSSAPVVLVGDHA

For `Cc1cc(Nc2cc(Nc3cc[nH]n3)ncn2)[n+]([O-])c2c1C(=O)NC21CCCCC1` [Compound XXIX-AS, 2′-((6-((1H-pyrazol-3-yl)amino)pyrimidin-4-yl)amino)-4′-methyl-5′-oxo-5′,6′-dihydrospiro[cyclohexane-1,7′-pyrrolo[3,4-b]pyridine] 1′-oxide], the concentration for half-maximal inhibition (IC50) on MNK2 and with TMD-8 cell p-IF4E was 0.1 to 10 nM each time.
With `O=C1NC2(CCCCC2)c2cc(Nc3ncnc4c3CCN4)sc21` [Compound XXXI, 2′-((6,7-dihydro-5H-pyrrolo[2,3-d]pyrimidin-4-yl)amino)spiro[cyclohexane-1,4′-thieno[2,3-c]pyrrol]-6′(5′H)-one], the IC50 lay within 0.1 to 10 nM on MNK2 and 100 to 1000 nM in the experiment on TMD-8 cell p-IF4E.
For the compound `O=C1NC2(CCCCC2)c2cc(Nc3cc(NC(=O)C4CCOC4)ncn3)sc21` (stereo not shown) [Compound XXIV-I, N-(6-((6′-oxo-5′,6′-dihydrospiro[cyclohexane-1,4′-thieno[2,3-c]pyrrol]-2′-yl)amino)pyrimidin-4-yl)tetrahydrofuran-3-carboxamide], the IC50 at MNK2 was in the range of 0.1 to 10 nM; with TMD-8 cell p-IF4E, 100 to 1000 nM.
Consider `COc1c(N)ncnc1Nc1nc2c(s1)C(=O)NC21CCCCC1` [Compound XXVIII-G, 2′-((6-amino-5-methoxypyrimidin-4-yl)amino)spiro[cyclohexane-1,4′-pyrrolo[3,4-d]thiazol]-6′(5′H)-one], for which the IC50 is 0.1 to 10 nM on MNK2 and 10 to 100 nM in the experiment with TMD-8 cell p-IF4E.
The matching figures for `Cc1cc(Nc2cc(Nc3ccn(C)n3)ncn2)[n+]([O-])c2c1C(=O)NC21CCCCC1` [Compound XXIX-K, 4′-methyl-2′-((6-((1-methyl-1H-pyrazol-3-yl)amino)pyrimidin-4-yl)amino)-5′-oxo-5′,6′-dihydrospiro[cyclohexane-1,7′-pyrrolo[3,4-b]pyridine] 1′-oxide]: 0.1 to 10 nM and 0.1 to 10 nM.
The matching figures for `Cc1cc(Nc2cc(Nc3ccc(N4CCN(CCO)CC4)cn3)ncn2)[n+]([O-])c2c1C(=O)NC21CCCCC1` [Compound XXIX-AAP, 2′-((6-((5-(4-(2-hydroxyethyl)piperazin-1-yl)pyridin-2-yl)amino)pyrimidin-4-yl)amino)-4′-methyl-5′-oxo-5′,6′-dihydrospiro[cyclohexane-1,7′-pyrrolo[3,4-b]pyridine]1′-oxide formate salt]: 0.1 to 10 nM and 0.1 to 10 nM.
For `CNC(=O)Nc1cc(Nc2cc3c(s2)C(=O)NC32CCCCC2)ncn1` [Compound XXIV-G, 1-methyl-3-(6-((6′-oxo-5′,6′-dihydrospiro[cyclohexane-1,4′-thieno[2,3-c]pyrrol]-2′-yl)amino)pyrimidin-4-yl)urea], in that order: 0.1 to 10 nM and 100 to 1000 nM.
With `O=C1NC2(CCCCC2)c2cc(Nc3cc(N[C@H]4CCCOC4)ncn3)sc21` [Compound XXIV-A, (S)-2′-((6-((tetrahydro-2H-pyran-3-yl)amino)pyrimidin-4-yl)amino)spiro[cyclohexane-1,4′-thieno[2,3-c]pyrrol]-6′(5′H)-one], the values for the IC50 on MNK2 and in the experiment on TMD-8 cell p-IF4E were 0.1 to 10 nM and 100 to 1000 nM, respectively.
On to `O=C1NC2(CCCCC2)c2nc(Nc3ncnc4[nH]ccc34)sc21` [Compound XXVIII-A, 2′-((7H-pyrrolo[2,3-d]pyrimidin-4-yl)amino)spiro[cyclohexane-1,4′-pyrrolo[3,4-d]thiazol]-6′(5′H)-one], for which the IC50 at MNK2 and in the experiment on TMD-8 cell p-IF4E was 0.1 to 10 nM throughout.
Turning to `CNC(=O)Nc1cc(Nc2nc3c(s2)C(=O)NC32CCCCC2)ncn1` [Compound XXVIII-L, 1-methyl-3-(6-((6′-oxo-5′,6′-dihydrospiro[cyclohexane-1,4′-pyrrolo[3,4-d]thiazol]-2′-yl)amino)pyrimidin-4-yl)urea], the IC50 on MNK2 is 0.1 to 10 nM; in the experiment on TMD-8 cell p-IF4E it was 100 to 1000 nM.
For `CN(C)[C@H]1CCN(C(=O)C2CCc3c(sc4ncnc(Nc5cc6c(s5)C(=O)NC65CCCCC5)c34)C2)C1` (stereo partly drawn) [Compound XXV, 2′-((7-((S)-3-(Dimethylamino)pyrrolidine-1-carbonyl)-5,6,7,8-tetrahydrobenzo[4,5]thieno[2,3-d]pyrimidin-4-yl)amino)spiro[cyclohexane-1,4′-thieno[2,3-c]pyrrol]-6′(5′H)-one], the IC50 was 10 to 100 nM on MNK2 and 100 to 1000 nM in the experiment with TMD-8 cell p-IF4E.
With `O=C1NC2(CCCCC2)c2cc(Nc3cc(NC4CCCC4)ncn3)sc21` [Compound XXIII-N, 2′-((6-(Cyclopentylamino)pyrimidin-4-yl)amino)spiro[cyclohexane-1,4′-thieno[2,3-c]pyrrol]-6′(5′H)-one], the IC50 at MNK2 and in the experiment on TMD-8 cell p-IF4E was 10 to 100 nM each time.
Take `O=C1NC2(CCCCC2)c2nc(Nc3cc(N[C@H]4C[C@@H](O)C4)ncn3)sc21` [Compound XXVIII-O, Cis-2′-((6-(((1s,3s)-3-hydroxycyclobutyl)amino)pyrimidin-4-yl)amino)spiro[cyclohexane-1,4′-pyrrolo[3,4-d]thiazol]-6′(5′H)-one]: the IC50 on MNK2 was in the range of 0.1 to 10 nM; in the experiment with TMD-8 cell p-IF4E, 100 to 1000 nM.
For the compound `Cc1cc(Nc2cc(Nc3ccccn3)ncn2)[n+]([O-])c2c1C(=O)NC21CCCCC1` [Compound XXIX-D, 4′-methyl-5′-oxo-2′-((6-(pyridin-2-ylamino)pyrimidin-4-yl)amino)-5′,6′-dihydrospiro[cyclohexane-1,7′-pyrrolo[3,4-b]pyridine] 1′-oxide], the IC50 at MNK2 and with TMD-8 cell p-IF4E was 0.1 to 10 nM each time.
Regarding `Cc1cc(Nc2cc(Nc3ccc(N4CCCCC4)cn3)ncn2)[n+]([O-])c2c1C(=O)NC21CCCCC1` [Compound XXIX-AAM, 4′-methyl-5′-oxo-2′-((6-((5-(piperidin-1-yl)pyridin-2-yl)amino)pyrimidin-4-yl)amino)-5′,6′-dihydrospiro[cyclohexane-1,7′-pyrrolo[3,4-b]pyridine] 1′-oxide], the IC50 on MNK2 and in the experiment on TMD-8 cell p-IF4E was 0.1 to 10 nM throughout.
In the case of `O=C1NC2(CCCCC2)c2nc(Nc3cc(Nc4ccccn4)ncn3)sc21` [Compound XXVIII-B, 2′-((6-(pyridin-2-ylamino)pyrimidin-4-yl)amino)spiro[cyclohexane-1,4′-pyrrolo[3,4-d]thiazol]-6′(5′H)-one], the IC50 was 0.1 to 10 nM at MNK2 and 10 to 100 nM with TMD-8 cell p-IF4E.
For `O=C1NC2(CCCCC2)c2nc(Nc3cc(N[C@H]4CCOC4)ncn3)sc21` [Compound XXVIII, (S)-2′-((6-((tetrahydrofuran-3-yl)amino)pyrimidin-4-yl)amino)spiro[cyclohexane-1,4′-pyrrolo[3,4-d]thiazol]-6′(5′H)-one], in that order: 0.1 to 10 nM and 10 to 100 nM.
On to `Cc1cc(Nc2cc(Nc3ccon3)ncn2)[n+]([O-])c2c1C(=O)NC21CCCCC1` [Compound XXIX-AAD, 2′-((6-(isoxazol-3-ylamino)pyrimidin-4-yl)amino)-4′-methyl-5′-oxo-5′,6′-dihydrospiro[cyclohexane-1,7′-pyrrolo[3,4-b]pyridine] 1′-oxide], for which the IC50 at MNK2 and in the experiment with TMD-8 cell p-IF4E was 0.1 to 10 nM throughout.
With `O=C1NC2(CCCCC2)c2cc(Nc3ncnc4[nH]ccc34)sc21` [Compound XVII-A, 2′-((7H-pyrrolo[2,3-d]pyrimidin-4-yl)amino)spiro[cyclohexane-1,4′-thieno[2,3-c]pyrrol]-6′(5′H)-one], the IC50 at MNK2 is 0.1 to 10 nM; in the experiment on TMD-8 cell p-IF4E it was 10 to 100 nM.
The matching figures for `COc1c(N)ncnc1Nc1cc(C)c2c([n+]1[O-])C1(CCCCC1)NC2=O` [Compound XXIX-Z, 2′-((6-amino-5-methoxypyrimidin-4-yl)amino)-4′-methyl-5′-oxo-5′,6′-dihydrospiro[cyclohexane-1,7′-pyrrolo[3,4-b]pyridine] 1′-oxide]: 0.1 to 10 nM and 0.1 to 10 nM.
Turning to `Cc1cc(Nc2cc(Nc3ccc(N4CCNCC4)cn3)ncn2)[n+]([O-])c2c1C(=O)NC21CCCCC1` [Compound XXIX-AAL, 4′-methyl-5′-oxo-2′-[(6-{[5-(piperazin-1-yl)pyridin-2-yl]amino}pyrimidin-4-yl)amino]-6′H-spiro[cyclohexane-1,7′-pyrrolo[3,4-b]pyridin]-1′-ium-1′-olate], the IC50 at MNK2 and in the experiment with TMD-8 cell p-IF4E was 0.1 to 10 nM throughout.
As to `Cc1cc(Nc2cc(N[C@H]3CCOC3)ncn2)[n+]([O-])c2c1C(=O)NC21CCCCC1` [Compound XXIX-A, (S)-4′-methyl-5′-oxo-2′-((6-((tetrahydrofuran-3-yl)amino)pyrimidin-4-yl)amino)-5′,6′-dihydrospiro[cyclohexane-1,7′-pyrrolo[3,4-b]pyridine] 1′-oxide], the IC50 at MNK2 and with TMD-8 cell p-IF4E was 0.1 to 10 nM in each case.
For the compound `Cc1cc(Nc2cc(N)ncn2)[n+]([O-])c2c1C(=O)NC21CCCCC1` [Compound XXIX, 2′-((6-Aminopyrimidin-4-yl)amino)-4′-methyl-5′-oxo-5′,6′-dihydrospiro [cyclohexane-1,7′-pyrrolo[3,4-b]pyridine] 1′-oxide], the IC50 on MNK2 was in the range of 0.1 to 10 nM; in the experiment with TMD-8 cell p-IF4E it was 10 to 100 nM.
